The values below come from ChEMBL document CHEMBL5576065, “Identification of highly potent and selective HTRA1 inhibitors” (Bioorg Med Chem Lett, 2024).

For assay [1], the target named is T1, Serine protease HTRA1 (Homo sapiens, UniProt Q92743). Description: Inhibition of HTRA1 (unknown origin).
The target in assay [2] is T2, Caspase-6 (Homo sapiens) (UniProt P55212).
T2 sequence (whole entry): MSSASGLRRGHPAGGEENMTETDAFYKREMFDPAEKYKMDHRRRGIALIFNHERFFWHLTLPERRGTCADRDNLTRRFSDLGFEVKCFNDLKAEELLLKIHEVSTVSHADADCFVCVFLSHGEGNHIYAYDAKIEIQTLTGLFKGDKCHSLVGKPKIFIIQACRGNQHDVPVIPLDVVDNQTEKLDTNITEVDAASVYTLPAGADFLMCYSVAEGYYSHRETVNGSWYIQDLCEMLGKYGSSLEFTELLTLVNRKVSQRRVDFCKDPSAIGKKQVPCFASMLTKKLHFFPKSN
Description: Inhibition of Caspase-6 (unknown origin) at 1 uM.

Assay [3] concerns the target T1, Serine protease HTRA1. Description: Inhibition of HTRA1 (unknown origin) assessed as residual activity at 1 uM relative to control.
Assay [4] concerns the target Chymotrypsin (Homo sapiens) (UniProt Q99895+P17538+P40313+Q6GPI1). Kind of assay: Inhibition of chymotrypsin (unknown origin) at 1 uM. The format is protein assay.
Assay [5] has as its target Kallikrein-7 (Homo sapiens) (UniProt P49862). Kind of assay: Inhibition of kallikrein-7 (unknown origin) at 1 uM.
Assay [6] addresses T3, Caspase-9 (Homo sapiens) (UniProt P55211).
T3 sequence (whole entry): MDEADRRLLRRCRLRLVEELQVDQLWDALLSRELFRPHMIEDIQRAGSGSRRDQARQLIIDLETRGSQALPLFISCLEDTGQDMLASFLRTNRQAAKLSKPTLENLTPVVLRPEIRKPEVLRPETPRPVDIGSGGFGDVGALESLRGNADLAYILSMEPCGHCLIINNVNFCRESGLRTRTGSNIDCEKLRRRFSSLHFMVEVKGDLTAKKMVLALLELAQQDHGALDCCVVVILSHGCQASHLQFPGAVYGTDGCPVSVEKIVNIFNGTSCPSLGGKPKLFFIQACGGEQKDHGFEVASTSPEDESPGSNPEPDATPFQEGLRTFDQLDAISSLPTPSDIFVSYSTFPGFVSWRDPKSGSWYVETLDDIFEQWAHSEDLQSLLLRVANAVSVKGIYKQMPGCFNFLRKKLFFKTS
Description: Inhibition of Caspase-9 (unknown origin) at 1 uM.

Active and inactive are the calls of the source. The calls are words filed in the database; no cut-off is given here. Square brackets hold non-standard residues; d marks the D form. Peptide text beside a SMILES is read from it. * marks the point of attachment. hMet = CSCCC[C@H](N)C(=O)O; X1 = CC(C)[C@H](N*)B(O)O

T1 sequence (Q92743 whole entry): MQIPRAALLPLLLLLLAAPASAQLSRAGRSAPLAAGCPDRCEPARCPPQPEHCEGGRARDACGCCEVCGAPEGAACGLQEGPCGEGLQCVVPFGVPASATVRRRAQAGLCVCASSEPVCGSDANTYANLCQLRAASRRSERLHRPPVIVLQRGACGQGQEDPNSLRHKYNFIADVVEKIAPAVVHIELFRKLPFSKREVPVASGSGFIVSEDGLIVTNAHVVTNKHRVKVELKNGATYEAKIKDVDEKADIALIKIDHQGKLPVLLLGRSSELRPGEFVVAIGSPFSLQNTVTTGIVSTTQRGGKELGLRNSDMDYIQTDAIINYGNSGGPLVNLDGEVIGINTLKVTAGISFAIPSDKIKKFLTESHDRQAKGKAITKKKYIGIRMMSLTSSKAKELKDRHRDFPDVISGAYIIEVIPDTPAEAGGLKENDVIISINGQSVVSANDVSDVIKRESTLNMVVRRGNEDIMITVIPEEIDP
Chain of Kallikrein-7 (Homo sapiens) (P49862 30-253 limits assumed): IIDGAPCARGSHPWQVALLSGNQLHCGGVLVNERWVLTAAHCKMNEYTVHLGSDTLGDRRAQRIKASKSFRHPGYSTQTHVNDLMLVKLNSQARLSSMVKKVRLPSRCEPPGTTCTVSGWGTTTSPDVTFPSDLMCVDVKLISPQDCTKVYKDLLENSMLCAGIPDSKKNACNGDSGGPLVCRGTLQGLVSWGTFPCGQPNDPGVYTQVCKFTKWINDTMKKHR

The term IC50 denotes the midpoint of a concentration-inhibition curve. `CC(C)C[C@H](NC(=O)[C@H](CCCCN)NC(=O)OCc1ccccc1)C(=O)N[C@H](B(O)O)C(C)C` displayed a half-inhibitory concentration (IC50) in assay [1] of 15300 nM.
Consider `CSCCC[C@H](NC(=O)[C@@H]1CCCN1C(=O)[C@@H](N)CC(=O)O)C(=O)N[C@@H](Cc1ccccc1)C(=O)N[C@@H](CCCCN)C(=O)N[C@@H](CC(C)C)C(=O)N[C@H](B(O)O)C(C)C` (H-DP[hMet]FKL-X1), for which inhibition in assay [1] was half-maximal at 2600 nM (IC50).
In the case of `CC(C)C[C@H](NC(=O)[C@H](Cc1cccc(Cl)c1)NC(=O)NCc1ccccc1)C(=O)N[C@H](B(O)O)C(C)C`, half-maximal inhibition in assay [1] (IC50) required 495 nM.
Turning to `CC(C)C[C@H](NC(=O)[C@H](Cc1ccc(Cl)cc1)NC(=O)OCc1ccccc1)C(=O)N[C@H](B(O)O)C(C)C`, the 50% inhibitory concentration (IC50) in assay [1] worked out at 73 nM.
`CC(C)C[C@H](NC(=O)[C@H](Cc1cccc(Cl)c1)NC(=O)C(C)(C)Cc1ccccc1)C(=O)N[C@H](B(O)O)C1CCC1`: the inhibition result in assay [2], in assay [4], in assay [5] and in assay [6] was “inactive” in each case. The Activity in assay [3] is 0%. This compound also showed a 50% inhibitory concentration (IC50) in assay [1] of 13 nM.
Turning to `Cc1cccc(C[C@H](NC(=O)OCc2ccccc2)C(=O)N[C@@H](CC(C)C)C(=O)N[C@H](B(O)O)C(C)C)c1`, the concentration for half-maximal inhibition (IC50) in assay [1] was 45 nM.
Take `CC(C)C[C@H](NC(=O)[C@H](CC1CCCCC1)NC(=O)OCc1ccccc1)C(=O)N[C@H](B(O)O)C(C)C`: in assay [1], the 50% inhibitory concentration (IC50) was 466 nM. This IC50 is about 10-fold higher than that of the compound before.
`CCCCC[C@H](NC(=O)OCc1ccccc1)C(=O)N[C@@H](CC(C)C)C(=O)N[C@H](B(O)O)C(C)C` gave a half-maximal inhibitory concentration (IC50) in assay [1] of 1920 nM.
Turning to `CC(C)C[C@H](NC(=O)[C@H](Cc1cccc(F)c1)NC(=O)OCc1ccccc1)C(=O)N[C@H](B(O)O)C(C)C`, the concentration for half-maximal inhibition (IC50) in assay [1] stood at 88 nM.
For `CC(C)C[C@H](NC(=O)[C@H](Cc1cccc(Cl)c1)NCCCc1ccccc1)C(=O)N[C@H](B(O)O)C(C)C`, in assay [1], it took 4900 nM to reach half-maximal inhibition (IC50).
For the compound `CC(C)C[C@H](NC(=O)[C@H](Cc1ccc[n+]([O-])c1)NC(=O)OCc1ccccc1)C(=O)N[C@H](B(O)O)C(C)C`, the 50% inhibitory concentration (IC50) in assay [1] was 654 nM. Against the preceding compound, the IC50 is about 7.5-fold lower.
With `CC(C)C[C@H](NC(=O)[C@H](Cc1cccc(Cl)c1)NC(=O)OCc1ccccc1)C(=O)N[C@H](B(O)O)C(C)C`, the inhibition entry in assay [2], in assay [4], in assay [5] and in assay [6] was “inactive” in each case. The Activity in assay [3] was determined as 0%. The compound further returned a half-inhibitory concentration (IC50) in assay [1] of 10 nM.
`CC(C)C[C@H](NC(=O)[C@H](Cc1cccc(Br)c1)NC(=O)OCc1ccccc1)C(=O)N[C@H](B(O)O)C(C)C` registered a 50% inhibitory concentration (IC50) in assay [1] of 17 nM.
The compound `CC(C)C[C@H](NC(=O)[C@H](Cc1cccc(Cl)c1)NC(=O)CCc1ccccc1)C(=O)N[C@H](B(O)O)C(C)C` returned an IC50 in assay [1] of 104 nM. Compared with the last compound, the IC50 is about 6.1-fold higher.
In the case of `CC(C)C[C@H](NC(=O)[C@H](Cc1cc[n+]([O-])cc1)NC(=O)OCc1ccccc1)C(=O)N[C@H](B(O)O)C(C)C`, in assay [1], the midpoint of inhibition, the IC50, lay at 1540 nM.
With `CC(C)C[C@H](NC(=O)[C@H](Cc1ccccc1)NC(=O)OCc1ccccc1)C(=O)N[C@H](B(O)O)C(C)C`, half-maximal inhibition in assay [1] (IC50) required 411 nM.
In assay [1], `CC(C)C[C@H](NC(=O)[C@H](Cc1cccc(Cl)c1)NC(=O)C(C)(C)Cc1ccccc1)C(=O)N[C@H](B(O)O)C(C)C` gave an IC50 of 11 nM.
